#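 All cell lines were grown in 96-well plates and treated with compound for 48 hours. GI50 is the concentration that inhibits growth by half. TGI is the concentration that stops growth completely.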
# Assays:
# Assay in all cases: inhibition of tumour cell growth, NCI panel, 48 h
# SF-268 CNS = test system: SF-268 CNS
# MOLT-4 leukemia = test system: MOLT-4 leukemia
# HCC-2998 colon = test system: HCC-2998 colon
# EKVX NSCLC = test system: EKVX NSCLC
# HOP-92 NSCLC = test system: HOP-92 NSCLC
# SNB-78 CNS = test system: SNB-78 CNS
# SN12C renal = test system: SN12C renal
# LOX IMVI melanoma = test system: LOX IMVI melanoma
# HOP-18 NSCLC = test system: HOP-18 NSCLC
# PC-3 prostate = test system: PC-3 prostate
SMILES,TGI (SF-268 CNS) [µM],TGI (MOLT-4 leukemia) [µM],TGI (HCC-2998 colon) [µM],TGI (EKVX NSCLC) [µM],TGI (HOP-92 NSCLC) [µM],TGI (SNB-78 CNS) [µM],TGI (SN12C renal) [µM],TGI (LOX IMVI melanoma) [µM],TGI (HOP-18 NSCLC) [µM],GI50 (SF-268 CNS) [µM],GI50 (MOLT-4 leukemia) [µM],GI50 (EKVX NSCLC) [µM],GI50 (HOP-92 NSCLC) [µM],GI50 (SNB-78 CNS) [µM],GI50 (SN12C renal) [µM],GI50 (LOX IMVI melanoma) [µM],GI50 (PC-3 prostate) [µM],TGI (PC-3 prostate) [µM],GI50 (HCC-2998 colon) [µM]
N#C/C1=C(\N)CCSSSC1,> 100,> 100,> 100,> 100,95.6,> 100,> 100,> 100,,,,,,,,,,,
O=C(/C=C/c1cccc2ccccc12)c1ccccc1Cl,36.5,8.82,28.4,28.6,26.4,40.9,> 100,,33.3,,,,,,,,,,
C1=CC(N(c2ccccc2)C2C=CCCC2)CCC1 (stereo unspecified),> 100,,,> 100,> 100,,> 100,> 100,> 100,,,,,,,,,,
CCC[CH2][Sn]([Cl])([CH2]CCC)[CH2]CCC,0.314,0.632,,0.364,0.188,0.313,0.254,0.234,,0.148,0.0522,0.0564,0.0452,0.129,0.119,0.109,,,
CC12CP(=O)(c3ccccc3)CC1C2(Cl)Cl (stereo unspecified),,> 100,> 100,> 100,,> 100,> 100,> 100,> 100,,,,,,,,,,
CCOC(=O)C(=[N+]=[N-])[Si](C)(C)C,59.7,,> 100,,> 100,> 100,> 100,> 100,> 100,,,,,,,,,,
CCOc1ccc(NC(=O)CC#N)cc1,> 100,> 100,> 100,> 100,,> 100,> 100,> 100,> 100,,,,,,,,,,
COc1cc(-n2cc(-c3ccc(F)cc3)[nH]c2=O)cc(OC)c1OC,> 100,> 100,> 100,> 100,> 100,,> 100,> 100,,> 100,> 100,> 100,> 100,,> 100,> 100,> 100,> 100,> 100
O=C(Nc1nc(=S)c2c(ncn2CCOC(=O)c2ccccc2)[nH]1)c1ccccc1,39.3,,> 100,> 100,> 100,> 100,> 100,> 100,> 100,,,,,,,,,,
CC1CN(C(=O)CN2CCC(CCCCN(C)C)CC2)c2ccccc2NC1=O (stereo unspecified),> 100,> 100,> 100,,> 100,,> 100,> 100,> 100,,,,,,,,,,
Clc1ccc2[nH]cc(-c3nnnn3-c3ccccc3)c2c1,> 100,> 53,20.1,> 100,> 100,,> 100,> 53.5,,53.1,11,28.3,27.5,,32.8,10.5,18.6,> 59.5,5.32
[Cl][Hg][c]1cc[c]([Hg][Cl])o1,12.3,8.59,42.9,28.1,3.52,,12.9,4.27,,2.77,1.58,2.78,1.77,,2.25,0.707,6.83,28.5,17
COC(=O)C(Cc1nc2ccc(Cl)cc2[nH]c1=O)/C(=N\N)C(=O)Nc1cc(C)c(Cl)cc1S(=O)(=O)O (stereo unspecified),> 100,> 100,> 100,> 100,> 100,> 100,> 100,> 100,,,,,,,,,,,
CCOC(=O)Nc1ccc(C)c(NC(=O)OCC)c1,> 100,> 100,> 100,> 100,> 100,,> 100,> 100,,,,,,,,,,> 100,
C[C@@H]1CC[C@@H]2[C@@H]1[C@H](OC(=O)/C=C/c1ccccc1)[C@]1(C3CCCCC3)C[C@@H](OC(=O)CO)[C@@]2(C)O1,9.86,6.07,3.92,15.6,9.17,,3.56,3.27,,1.48,2.61,3.47,2.68,,0.086,1.67,3.04,11.3,1.94
CCOC(=O)C(Cc1ccc(CCCC(=O)NCCC(=O)Nc2ccc3nc(C)sc3c2)cc1)C(=O)OCC,> 100,54.5,> 100,> 100,> 100,,> 100,> 100,,> 78,21.3,53.7,55.6,,31.4,33.2,24.3,> 70.7,60.4
CCN1CCC(O)(c2ccc(OC)cc2)C(C(=O)c2ccc(OC)cc2)C1 (stereo unspecified),41.8,> 100,41.2,98,,59.3,42.5,45.1,,,,,,,,,,,
COc1cc2c3c(n(C)c(=O)c2cc1OC)-c1cc2c(cc1/C3=C\CN)OCO2,> 79.2,0.433,0.589,> 100,> 77.1,,> 100,1.46,,0.433,< 0.0208,11.6,2.09,,0.565,0.133,7.03,> 100,0.0628

SMILES,TGI (SF-268 CNS) [µM],TGI (MOLT-4 leukemia) [µM],TGI (HCC-2998 colon) [µM],TGI (EKVX NSCLC) [µM],TGI (HOP-92 NSCLC) [µM],TGI (SNB-78 CNS) [µM],TGI (SN12C renal) [µM],TGI (LOX IMVI melanoma) [µM],TGI (HOP-18 NSCLC) [µM],GI50 (SF-268 CNS) [µM],GI50 (MOLT-4 leukemia) [µM],GI50 (EKVX NSCLC) [µM],GI50 (HOP-92 NSCLC) [µM],GI50 (SNB-78 CNS) [µM],GI50 (SN12C renal) [µM],GI50 (LOX IMVI melanoma) [µM],GI50 (PC-3 prostate) [µM],TGI (PC-3 prostate) [µM],GI50 (HCC-2998 colon) [µM]
CN1C(=O)N(C)C2C1NN=c1s/c(=C\c3ccc(Cl)cc3Cl)c(=O)n12 (stereo unspecified),> 100,> 100,15.5,> 100,79.4,,> 100,> 100,,1.66,0.363,0.425,0.406,,0.422,0.159,0.167,> 100,0.281
COc1ccc2c(c1)C(=O)c1c-2c(N2CCN(C(=O)CNCCNCCO)CC2)nc2ccccc12,9.38,6.61,7.58,19.7,9.68,,13.3,4.72,,2.97,2.19,7.15,2.47,,3.91,2.18,5.57,18.7,2.58
CS(=O)(=O)CCNCc1nc(-c2ccc3ncnc(Nc4ccc(OCc5cccc(C(F)(F)F)c5)cc4)c3c2)cs1,> 25,> 25,> 25,> 25,15.8,,> 25,> 25,,12.8,> 25,> 20.4,3.68,,> 25,> 25,> 23.6,> 25,> 25
O=C(N[C@@H](c1ccc(Cl)c(Cl)c1)C1CNC1)c1ccc2cnccc2c1,3.16,6.18,3.51,16.9,3.34,,7.45,3.71,,0.924,0.106,0.288,0.0444,,0.715,0.716,0.486,17.2,0.246
NCCNc1c2c(c(NCCN)c3[nH]ccc13)C(=O)c1ccccc1C2=O,0.662,0.0437,0.093,3.91,4.21,,0.994,0.242,,0.17,< 0.01,1.25,0.427,,0.0978,0.0111,0.631,2.45,< 0.01
COc1cccc(C2=NC(C(C)C)CO2)c1 (stereo unspecified),> 100,> 100,> 100,> 100,,> 100,> 100,> 100,,,,,,,,,,,
COC1(OC)C(N(C)C)=C(Cl)C(=O)/C1=C/C=O,> 100,> 100,> 100,,> 100,,> 100,> 100,> 100,,,,,,,,,,
COc1cccc2c1C(=O)c1c(O)c3c(c(O)c1C2=O)C[C@](O)(C(=O)CO)C[C@H]3O[C@@H]1C[C@@H](NC(=O)CCCCCN(C)C2(c3ccc(F)cc3)CC3CCC2C3)[C@H](O)[C@@H](C)O1 (stereo partly specified),14.9,2.61,3.37,17.7,12.5,,14.5,13.1,,5.38,0.304,7.85,5.36,,5.75,5.17,0.994,2.06,1.03
Cc1[nH]c2ccccc2c1C(=O)/C=C/c1ccccc1O,> 100,> 100,> 100,> 100,,,> 100,> 100,> 100,,,,,,,,,,
COc1cc2c(cc1OCCCNC(=O)c1cccc3c(=O)c4ccccc4[nH]c13)N=C[C@@H]1CCCN1C2=O,2.07,> 100,0.0321,0.14,49.6,,< 0.0126,,,< 0.0216,4.03,0.0166,< 0.01,,< 0.01,< 0.01,< 0.011,0.949,< 0.0103
Nc1c(C(=O)Nc2ccncc2)sc2nc3c(cc12)CCCCCCCC3,1.74,2.76,1.63,1.63,1.49,,1.74,1.56,,0.954,1.22,0.851,0.761,,0.905,0.845,0.866,1.72,0.9
CC[C@H]1[C@@H]2C=C[C@@H]3[C@H]4C/C=C\C(=O)NCCC[C@@H]5NC(=O)/C(=C(O)/C=C/[C@@H]4C[C@@H]3[C@H]2C[C@H]1C)C5=O,1.86,3.47,3.62,3.31,2.82,,1.99,1.96,,0.448,1.48,1.45,1.41,,0.569,0.662,0.865,2.3,1.8
[N-]=[N+]=N[C@H]1C[C@@H](CO)O[C@H]1n1cnc2c(N)ncnc21,> 100,,> 100,> 100,> 100,> 100,> 100,> 100,> 100,,,,,,,,,,
CCCN1C(=O)N(CCC)C2C1NC(=S)N2/N=C/C=C/c1ccccc1OC (stereo unspecified),53.4,> 66.2,65.1,> 100,> 100,,33.3,21.3,,1.15,0.576,2.22,0.624,,1.84,0.627,0.424,> 100,2.36
C#C[C@]1(O)CCC2C3CCc4cc(O)ccc4C3CC[C@@]21C (stereo partly specified),32.7,26.3,63.5,> 100,19.9,,37.6,18.8,,5.23,3.65,1.66,5.91,,6.41,5.27,5.48,42.4,9.88
Nc1nc(/C=C\c2ccc([N+](=O)[O-])s2)nc(N2CCCC2)n1,13.6,12.1,12.8,30,18.6,,20.5,2.41,,2.37,2.16,10.8,6.73,,3.45,0.198,3.92,21.9,4.86
C=CCCCCOc1ccccc1-c1cnc(OCCCCC=C)n1C,21.3,18.7,21.3,44.1,19.7,,23.9,17,,4.21,4.54,11,1.81,,5.51,4.89,5.38,28.9,6.57
COc1ccc(CC2NCCc3c2[nH]c2ccccc32)cc1 (stereo unspecified),> 100,> 100,48.3,> 100,58.6,> 100,> 100,> 100,,,,,,,,,,,

# Source: PubChem BioAssay (NCI)
